Test results as given in patent US5919464A, “Treatment of aberrant cellular states with biomodulators” (University of New Mexico, priority 1993, dated 1999).
“Also recorded” adds a separate entry of the source.

Experiments:
HMGCoA reductase [1] = biological target: T1, HMGCoA reductase (Rattus norvegicus, UniProt P51639); assay: HMG-CoA reductase inhibition, ED50; assay type: in vivo; set-up: from tissue; host or cells: whole animal (in vivo dose in μg/kg); details: HMG-CoA reductase inhibitor
T1 sequence (P51639 1-887): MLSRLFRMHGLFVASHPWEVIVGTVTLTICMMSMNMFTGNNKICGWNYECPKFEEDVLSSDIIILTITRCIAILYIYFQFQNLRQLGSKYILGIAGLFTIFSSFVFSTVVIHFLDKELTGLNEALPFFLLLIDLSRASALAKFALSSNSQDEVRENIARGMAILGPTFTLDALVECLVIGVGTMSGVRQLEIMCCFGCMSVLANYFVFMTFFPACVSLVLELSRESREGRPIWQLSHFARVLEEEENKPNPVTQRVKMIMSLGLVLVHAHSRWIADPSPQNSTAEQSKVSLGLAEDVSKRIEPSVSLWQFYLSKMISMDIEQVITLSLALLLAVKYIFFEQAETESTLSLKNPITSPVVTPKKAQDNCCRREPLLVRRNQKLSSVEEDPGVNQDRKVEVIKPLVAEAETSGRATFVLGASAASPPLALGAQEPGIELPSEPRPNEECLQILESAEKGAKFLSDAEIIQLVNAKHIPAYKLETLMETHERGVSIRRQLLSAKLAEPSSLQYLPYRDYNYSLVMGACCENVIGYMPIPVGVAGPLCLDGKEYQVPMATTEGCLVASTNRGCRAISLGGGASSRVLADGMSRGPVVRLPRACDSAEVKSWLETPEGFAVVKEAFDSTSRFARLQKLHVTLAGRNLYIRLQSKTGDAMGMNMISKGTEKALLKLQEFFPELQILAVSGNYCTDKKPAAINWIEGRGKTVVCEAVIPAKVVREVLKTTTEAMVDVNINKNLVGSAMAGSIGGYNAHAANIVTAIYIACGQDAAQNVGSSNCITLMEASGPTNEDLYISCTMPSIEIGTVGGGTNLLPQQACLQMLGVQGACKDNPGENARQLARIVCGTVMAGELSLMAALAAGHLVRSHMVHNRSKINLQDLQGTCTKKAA

canine glioma cells [2] = assay: cytotoxicity, simple survival (T50%) of canine glioma cells; assay type: cell-based; details: Canis lupus familiaris, Glioma cell, read-out: T 50% (50% inhibitory concentration on simple survival)
Description: (§1) Cytotoxicity was determined as a function of simple survival (T50%), adherence (ADH50%) and thymidine incorporation (I50%) of the cells.
(§2) Estimates of the 50% inhibitory concentrations of the various drugs tested on simple survival (T50%) and adherence (ADH50%) for canine glioma cells.

canine glioma cells [3] = assay: adherence (ADH50%) of canine glioma cells; assay type: cell-based; details: Canis lupus familiaris, Glioma cell
Description: as §1, §2

[4] = tested on: human peripheral blood leukocytes (HPBLs); assay: HPBL 3H-thymidine incorporation (proliferation); assay type: cell-based; set-up: reference not given here
Text: C. […] This model is used to correlate the effects of biomodulators on the expression of immune response in vitro. The plaque assay disclosed in this reference is used for the determination of the effect of biomodulators on the specificity, class and subclass of individual clones.
A. Purification of PWM and separation of the differentiative and proliferative functions Pokeweed Mitogen (PWM) and three of its isomitogens, Pa-1 and Pa-5, which are primarily differentiative in nature, and Pa-2 which is primarily proliferative, were prepared according to the method of Waxdal, supra, except that the iso-mitogens were finally purified by isoelectric focusing.

[5] = tested on: human colon carcinoma cell line (LS-174); assay: LS-174 generation times, Compound IIe'; assay type: cell-based
Description: The procedure of Example VA, above, was repeated except a human colon carcinoma cell line (LS-174) was used instead of the canine glioma cell line.
(§3) Mean of triplicate determinations. LS-174 cells (human colon carcinoma) were grown under conditions to promote exponential growth characteristics; 2×10^5 cells in a T-25 flask. The cells were harvested every 72 hours after the controls had reached approximately 85% confluency. The drug was added at the initiation of culture in DMSO, the control cultures had just DMSO. The drug concentration was adjusted with DMSO so that the final concentration of DMSO was always 0.5%.

HMGCoA reductase [6] = biological target: T1, HMGCoA reductase; assay: inhibition of rat liver HMGCoA reductase activity; assay type: biochemical; set-up: from tissue; host or cells: rat liver; details: read-out: IC50 HMG-CoA reductase
Text: reductase activity; data obtained according to Example IA.

canine glioma cells [7] = assay: thymidine incorporation (I50%) of canine glioma cells; assay type: cell-based; details: Canis lupus familiaris, Glioma cell
Description: as §1
Estimates of the I50% of the various drugs tested on thymidine incorporation of canine glioma cells in culture.

canine glioma cells [8] = assay: canine glioma generation times, Compound IIe'; assay type: cell-based
Description: The cells were harvested every 72 hours after the controls had reached 85% confluency. Generation time (Tg) was determined as the number of: hours required for the cell population to double.
as §3, with “Canine glioma” for “LS-174”, “cells” for “cells (human colon carcinoma)”, “2×10^5cells” for “2×10^5 cells”

[9] = biomodulator assay (general); details: in words
Text: All biomodulators will have at least the following effects, which can be measured as indicated above:
a. Biomodulators cause, at a concentration in the general range of 100 pM-1 μm, the differentiation of lymphocytes. This differentiation can be detected by, for example, the increased production of specific and non-specific antibodies in response to the presence of biomodulator in the culture medium, e.g., according to the HPBL method discussed above in C, or the alteration in the class of antibodies being produced by a cell line, e.g., from IgM to IgG, e.g., according to the method disclosed in the same reference.
b. Biomodulators cause, at a concentration in the general range of 100 pM-1 μm, the alteration of the cell surface oligosaccharide display of IMR-90 cells in culture as discussed in A. above.
Activity in both of these assays is a necessary and sufficient measure of whether or not a given substance is a biomodulator, as defined herein.

TNP-Ficoll = assay: in vivo antibody (PFC) response to T-independent antigen TNP-Ficoll; set-up: species or system mouse; details: in words
Description: In this case both IgM and IgG hapten specific responses were recorded as well as non-antigen specific plaque responses (Ig-PFC) using a Protein A coated red blood cell target.
The TNP-Ficoll antigen is administered as the SRBC antigen was above, by i.p. injection and the response assessed by conjugating the TNP hapten directly to the SRBC target, thus obviating any potential "carrier" effect. […] In this case, a third experimental parameter has been added to the study, the production of non-specific immunoglobulin (Ig-PFC). This parameter provides information on the general status of the humoral response regardless of antigen specificity. The TNP-Ficoll antigen does elicit a modest Ig-PFC response but little if any IgG specific response. […] In this case there is a very large specific and non-specific augmentation.

CC(C)OC(=O)C[C@H](O)C[C@@H](O)/C=C/c1c(C(C)C)nc(-c2ccccc2)n1-c1ccc(F)cc1 (relative stereo) [Compound IIe']
ED50 (HMGCoA reductase [1]): 0.025 mg/kg | IC50 (canine glioma cells [2]; 24 h): 0.75 µM | IC50 (canine glioma cells [2]; 72 h): 0.8 µM | IC50 (canine glioma cells [2]; 96 h): 0.9 µM | IC50 (canine glioma cells [3]; 24 h): 0.075 µM | IC50 (canine glioma cells [3]; 72 h): 0.07 µM | IC50 (canine glioma cells [3]; 96 h): 0.075 µM | Proliferation ((3H) thymidine incorporation into DNA) [4]: 0.85 | Tg ([5]; 10 nM, 72 h, control 26.5): 84.9 h | generation time after drug withdrawal ([5]; two passages, in words): the generation time returned to control levels | IC50 (HMGCoA reductase [6]): 0.003 µM | IC50 (canine glioma cells [7]; 24 h, first four lines, read-out: I50% (thymidine incorporation)): 0.05 µM | IC50 (canine glioma cells [7]; 48 h, first four lines, read-out: I50% (thymidine incorporation)): 0.075 µM | IC50 (canine glioma cells [7]; 48 h, second four lines, read-out: I50% (thymidine incorporation)): 0.075 µM | IC50 (canine glioma cells [7]; 72 h, first four lines, read-out: I50% (thymidine incorporation)): 0.08 µM | IC50 (canine glioma cells [7]; 96 h, first four lines, read-out: I50% (thymidine incorporation)): 0.05 µM | IC50 (canine glioma cells [7]; 96 h, second four lines, read-out: I50% (thymidine incorporation)): 0.05 µM | IC50 (canine glioma cells [7]; text to Table V, read-out: I50% (thymidine incorporation into DNA)): 0.05 to 0.08 µM | IC50 (canine glioma cells [7]; 24 h, second four lines, read-out: I50% (thymidine incorporation)): 0.1 µM | IC50 (canine glioma cells [7]; 72 h, second four lines, read-out: I50% (thymidine incorporation)): 0.03 µM | % Change of Tg (canine glioma cells [8]; 10 nM, 72 × 3 h): 180% | Tg (canine glioma cells [8]; 10 nM, 72 h, control 18.6): 25.3 h | contact inhibition (canine glioma cells [8]; in words): showed evidence of contact inhibition as the cells approached confluency

Cc1c(/C=C/C(O)CC(O)CC(=O)O)ccc2c1C(O)CC(C)C2 (stereo not shown) [colletruncoic acid]
biomodulator activity [9]: has been shown to have biomodulator activity

Dextran
PFC response to TNP-Ficoll (TNP-Ficoll): some stimulatory effect; also recorded: marked cellular proliferation but little differentiative response
